Tested on: MRC5-hT fibroblasts expressing HCMV UL38 (glucose-free medium)
Assay: rescue of cell number (AUC of dose-response) relative to untreated glucose-free control; higher = stronger protection from glucose-starvation-induced cell death
Conditions: glucose: 0 (glucose-free DMEM); 96 h; dose range 0.001-20, 10-point curve µM
Procedure: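 MRC5-hT fibroblasts stably expressing HCMV UL38 were seeded in 384-well plates, serum-starved for 24 h, switched to glucose-free DMEM, and pin-transferred with a metabolism-focused compound library as 10-point dose curves (1 nM to 20 µM; n=2). Nuclei were counted by Hoechst imaging 96 h after glucose withdrawal.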

Compound	rescue of cell number [%]
CCCCNc1cc(C(=O)O)cc(S(N)(=O)=O)c1Oc1ccccc1 [Bumetanide]	-20.9
OC[C@H]1O[C@H]([S-])[C@H](O)[C@@H](O)[C@@H]1O.[Au+] [Aurothioglucose]	-13.7
CCCC(CCC)C(=O)O [Valproic_acid]	-34
Nc1ccn([C@@H]2O[C@H](CO)[C@@H](O)C2(F)F)c(=O)n1 [Gemcitabine]	-5.76
CCN(CC)C(=S)SSC(=S)N(CC)CC [Disulfiram]	113
CCOC(=O)[C@@H](N)CCC(=O)N[C@@H](CSCc1ccccc1)C(=O)N[C@@H](C(=O)OCC)c1ccccc1 [Telintra]	16.7
CC/C=C\C[C@H]1C(=O)CC[C@@H]1CC(=O)O [Jasmonate]	-19.1
O=C(CCCCCCCn1cc(-c2cccnc2)nn1)Nc1ccccc1-c1ccccc1 [GPP_78]	20.3
CN(NC(=O)CC(=O)NN(C)C(=S)c1ccccc1)C(=S)c1ccccc1 [Elesclomol]	111
OCC(CO)N[C@H]1C[C@](O)(CO)[C@@H](O)[C@H](O)[C@H]1O [Voglibose]	-36.2
c1cc(-c2cnn3cc(-c4ccc(OCCN5CCCCC5)cc4)cnc23)ccn1 [Dorsomorphin]	66.2
O=C(O)CC[N+](=O)[O-] [3_Nitropropionic_acid]	-31.7
COc1cccc2c(NCc3ccccc3)nc(-n3c(N)nc4ccccc43)nc12 [ML240]	57.1
N[C@H](C(=O)O)[C@@H]1CC(Cl)=NO1 [Acivicin]	-32.4
COP(=O)(CCC(N)C(=O)O)Oc1cccc(CC(=O)O)c1 (stereo unspecified) [GGsTop]	-24
CCOC(=O)N1c2ccc(C(F)(F)F)cc2[C@@H](N(Cc2cc(C(F)(F)F)cc(C(F)(F)F)c2)C(=O)OC)C[C@H]1CC [Torcetrapib]	-13.1
Nc1ccn([C@@H]2C=C(CO)[C@@H](O)[C@H]2O)c(=O)n1 [Cyclopentenyl_cytosine]	84.2
NCCOCCOCCNC(=O)Cc1ccc(Nc2nc(NCc3ccc(F)cc3)nc(NCC3CCCCC3)n2)cc1 [AP-III-a4]	33.4
CC1=C(/C=C/C(C)=C/C=C/C(C)=C\C(=O)O)C(C)(C)CCC1 [Isotretinoin]	128
C/C=C(/C)C(=O)O[C@H]1C(C)=C2[C@H]([C@@H]1OC(=O)CCCCCCC)[C@@](C)(OC(C)=O)C[C@H](OC(=O)CCC)[C@@]1(O)[C@H]2OC(=O)[C@@]1(C)O [Thapsigargin]	25.4
Cc1ccc(-c2cc(=O)c3ccc4ccccc4c3o2)cc1	155
Cc1n[nH]c(C)c1Cc1sc2c(c1C(=O)N1C[C@H](O)CO1)c(=O)n(C)c(=O)n2CC(C)C	78.9
C=CCNC1=C2C[C@@H](C)C[C@H](OC)[C@H](O)[C@@H](C)/C=C(\C)[C@H](OC(N)=O)[C@@H](OC)/C=C\C=C(/C)C(=O)NC(=CC1=O)C2=O [17_AAG]	54.1
Cc1onc(C(=O)N2CCN(C(c3ccc(Cl)cc3)c3ccc(Cl)cc3)CC2)c1[N+](=O)[O-] [ML-210]	-2.73
CCCc1cc(-c2nc(-c3ccc(C)cc3)cs2)ccn1 [Fatostatin_A]	76.5
CCCCC[C@H](CC(=O)NO)C(=O)N[C@H](C(=O)N1CCC[C@H]1CO)C(C)C [Actinonin]	-1.46

Compound	rescue of cell number [%]
CC1(C)CCC(c2ccc(Cl)cc2)=C(CN2CCN(c3ccc(C(=O)NS(=O)(=O)c4ccc(N[C@H](CCN5CCOCC5)CSc5ccccc5)c(S(=O)(=O)C(F)(F)F)c4)cc3)CC2)C1 [ABT_263]	33.6
Cc1ccccc1CN1C(=O)C2=C(CCN(Cc3ccccc3)C2)N2CCN=C12 [ONC-201]	24
C=C(C)[C@@H]1CC[C@]2(C(=O)O)CC[C@]3(C)[C@H](CC[C@@H]4[C@@]5(C)CC[C@H](O)C(C)(C)[C@@H]5CC[C@]43C)[C@@H]12 [Betulinic_acid]	17.8
CC(C)(C)NC(=O)[C@H]1CC[C@H]2[C@@H]3CC[C@H]4NC(=O)C=C[C@]4(C)[C@H]3CC[C@]12C [Finasteride]	-38.3
Cc1ccc(C(=O)c2cc(O)c(O)c([N+](=O)[O-])c2)cc1 [Tolcapone]	37.3
Oc1ncnc2[nH]ncc12 [Allopurinol]	-22.3
CC1=C(/C=C/C(C)=C/C=C/C(C)=C/C(=O)O)C(C)(C)CCC1 [Tretinoin]	10
NC(=O)c1ncn([C@@H]2O[C@H](CO)[C@@H](O)[C@H]2O)c1N [AICAR]	-30.3
O[C@H]1[C@H]2[C@H](O)CCCN2C[C@H]1O [Swainsonine]	-31.9
OCCN(CCO)c1nc(N2CCCCC2)c2nc(N(CCO)CCO)nc(N3CCCCC3)c2n1 [Dipyridamole]	141
O=C(O)CCCCC(CCSCc1ccccc1)SCc1ccccc1 (stereo unspecified) [CPI-613]	28.9
O=C(Cc1ccccc1)Nc1nnc(CCSCCc2nnc(NC(=O)Cc3ccccc3)s2)s1 [BPTES]	-24.3
NS(=O)(=O)c1ccc(NC(=O)Nc2ccc(F)cc2)cc1 [U_104]	-34.7
CCCCCCCCCCC[C@@H](C[C@@H]1OC(=O)[C@H]1CCCCCC)OC(=O)[C@H](CC(C)C)NC=O [Orlistat]	-10.4
COc1cc(/C=C/C(=O)N2CCC=CC2=O)cc(OC)c1OC [Piperlongumine]	36.8
CN(Cc1cnc2nc(N)nc(N)c2n1)c1ccc(C(=O)N[C@@H](CCC(=O)O)C(=O)O)cc1 [Methotrexate]	-33.3
Oc1cccnc1NC(c1ccc(Cl)cc1)c1ccc2cccnc2c1O (stereo unspecified) [Adaptaquin]	33.2
C=C1C(=O)O[C@H]2[C@H]1CC/C(C)=C/CC[C@@]1(C)O[C@@H]21 [Parthenolide]	34.9
CC(=O)NC(CSC(=S)Nc1ccc(NC(=S)SCC(NC(C)=O)C(=O)O)cc1)C(=O)O (stereo unspecified) [2-AAPA hydrate]	-9.91
O=C(c1cc(Cc2n[nH]c(=O)c3ccccc23)ccc1F)N1CCN(C(=O)C2CC2)CC1 [Olaparib]	-15.1
CCOC(=O)c1ccc(-c2ccc(OC(=O)N(C)Cc3cccc(-c4ccncc4)c3)cc2)cc1 [WWL_113]	-23.8
CC(C)(C#N)c1cc(Cn2cncn2)cc(C(C)(C)C#N)c1 [Anastrozole]	29.4
CN1CCN(C(=O)c2ccc(-c3ccc4c(C=O)c(O)ccc4c3)s2)CC1 [MKC3946]	-14.6
O=c1cc(-c2ccc(O)cc2)oc2cc(O)cc(O)c12 [Apigenin]	58
C[C@H]1O[C@@H](O[C@H]2[C@@H](O)C[C@H](O[C@H]3[C@@H](O)C[C@H](O[C@H]4CC[C@@]5(C)[C@H](CC[C@@H]6[C@@H]5CC[C@]5(C)[C@@H](C7=CC(=O)OC7)CC[C@]65O)C4)O[C@@H]3C)O[C@@H]2C)C[C@H](O)[C@@H]1O [Digitoxin]	23.7
O=C1CCCC(=O)C1C(=O)c1ccc(C(F)(F)F)cc1[N+](=O)[O-] [Nitisinone]	5

Compound	rescue of cell number [%]
Cn1c2cc([S+](C)[O-])sc2c2cnn(Cc3cccc(N)c3)c(=O)c21 (stereo unspecified) [TEPP_46]	92.3
O=C(O)c1cc(/N=N/c2ccc(S(=O)(=O)Nc3ccccn3)cc2)ccc1O [Sulfasalazine]	87.4
CC(C)(C(=O)c1cccnc1)c1cccnc1 [Metyrapone]	87.6
NC(=O)c1[nH]nc([C@@H]2O[C@H](CO)[C@@H](O)[C@H]2O)c1O [Pyrazofurin]	26.5
CC(=O)Oc1ccccc1C(=O)O [Aspirin]	25.2
Nc1nc(Cl)nc2c1ncn2[C@H]1C[C@H](O)[C@@H](CO)O1 [Cladribine]	-12.9
Nc1cccc(S(=O)(=O)N2CCCN(S(=O)(=O)c3ccc4c(c3)OCCO4)CC2)c1 [DASA-58]	68
O=C(O)c1ccccc1SC1=NS(=O)(=O)c2ccccc21	-13.9
C/C=C/C/C=C/CCC(=O)[C@H]1O[C@H]1C(N)=O [Cerulenin]	34.9
N#CSc1cc(SC#N)c(N)nc1N [PR-619]	-9.68
Cc1ccc(-c2c(-c3nn(C)c4ncnc(N5CC[C@H](N6CCCCC6)C5)c34)cnn2C)cc1	45.6
Nc1ncnc2c1C(=O)N(c1ccc([C@H]3CC[C@H](CC(=O)O)CC3)cc1)CCO2	-20.9
NC(=O)NO [Hydroxyurea]	61.6
COc1cc(/C=C/C(=O)CC(=O)/C=C/c2ccc(O)c(OC)c2)ccc1O [Curcumin]	32
Oc1ccc(Nc2nc(-c3ccc(Cl)cc3)cs2)cc1 [SKI_II]	0.0721
Cc1[nH]nc(C(F)(F)F)c1Cc1sc2c(c1C(=O)N1C[C@](C)(O)CO1)c(=O)n(C)c(=O)n2C(C)C [AZD3965]	0.308
CCCCCCCCCCCCC/C=C/[C@@H](O)[C@H](CO)N(C)C [N_N_Dimethylsphingosine]	18.1
CCC(C)N(C)C(=O)c1cc2ccccc2c(-c2ccccc2Cl)n1 (stereo unspecified)	15.2
CC1=C(/C=C/C(C)=C/C=C/C(C)=C/C(=O)Nc2ccc(O)cc2)C(C)(C)CCC1 [Fenretinide]	12.2
CC(=O)N1CCN(c2ccc(OCC3COC(Cn4ccnc4)(c4ccc(Cl)cc4Cl)O3)cc2)CC1 (stereo unspecified) [Ketoconazole]	-8.71
Cc1c2oc3c(C)ccc(C(=O)N[C@@H]4C(=O)N[C@H](C(C)C)C(=O)N5CCC[C@H]5C(=O)N(C)CC(=O)N(C)[C@@H](C(C)C)C(=O)O[C@@H]4C)c3nc-2c(C(=O)N[C@@H]2C(=O)N[C@H](C(C)C)C(=O)N3CCC[C@H]3C(=O)N(C)CC(=O)N(C)[C@@H](C(C)C)C(=O)O[C@@H]2C)c(N)c1=O [Actinomycin_D]	27.1
CC(C)(C)c1ccc(S(=O)(=O)NCc2ccc(C(=O)Nc3cccnc3)cc2)cc1 [STF_31]	26.1
CC(C)C[C@@H](C(=O)N[C@H](C(=O)OC1CCCC1)c1ccccc1)[C@H](O)C(=O)NO [CHR_2797]	-14.9
Cc1nc(-c2ccc(OCC(C)C)c(C#N)c2)sc1C(=O)O [Febuxostat]	73.9

— the supplement of paper PMC10790783
